Data set [1] concerns forearm of a human volunteer. Nature of the data set: Further human vasoconstriction testing, Method 2. The data set is classed as in vivo. Details: key: +: "positive" (pallor could be observed); -: "negative" (pallor could not be detected). How it is done: The mixtures, in 20 μL amounts, were applied to circular patches (1/4 inch diameter). The patches were applied to the forearm of a human volunteer, and covered with a water impervious film for 3 hr. Vasoconstriction activity was judged by the appearance of pallor at various time points after the patches were removed. Tests were performed on the same person and the results were obtained from 2-4 observations.
In TABLE XIV above, "-" means a negative result was obtained. In other tables herein, "-" means not tested.
In TABLE XIV above, the results of a simpler method of judging vasoconstriction activity was used in which only "positive" (pallor could be observed) or "negative" (pallor could not be detected) results were recorded.

A short description of another data set: physchem. The data set is classed as physicochemical. The procedure:
(§1) A Whatman C-18 column (4.6 mm×108 mm) was connected to a Spectra-Physics component system consisting of a SP 8810 precision isocratic pump, Rheodyne 7125 injector (20 μL injection volume), SP 8450 UV/VIS variable wavelength detector (230 nm), and SP 4290 integrator. The system was operated at ambient temperature. The mobile phase consisted of acetonitrile, acetic acid and water (60:0.1:40). At a flow rate of 1.0 mL/minute, the retention times for the test compounds were 4.74 minutes for Compound A, 5.84 minutes for Compound B, 6.93 minutes for Compound C, and 5.72 minutes for Compound D.
(§2) HPLC peak area and peak height were used as a measure of the concentration of the test compounds and plotted against time to evaluate the disappearance rates of the compounds. The stability was determined by measuring the pseudo-first order rate constant (kobs in min^-1) or half-life (t1/2 in min) of disappearance of the test compound in buffer. […].
The stabilities of test compounds A, B, C, and D, were tested in buffer solutions in the pH range of 4.0 to 9.0. A 0.1 mL portion of each compound at a concentration of 1 mM was mixed with 10 mL phosphate buffer (made by combining 0.05 M of NaH2 PO4 and 0.05 M of Na2 HPO4 with 0.05 M of NaCl) to give a final concentration of 0.01 mM. The mixtures were incubated at 37° C., and samples were taken and injected in the HPLC system at appropriate time intervals. pH profiles of each test compound are shown in TABLE III below. […]

A further data set can be described thus: Stability in rat blood. The data set is classed as in vitro ADME. Conditions: rat, blood. How it is done:
as §1, §2
(§3) A 0.2 mL aliquot of stock solution (1 mM) of each of the test compounds A, B, C, and D, was added to 2 mL of each biological media (whole heparinized rat blood, 20% rat liver homogenate, and 6-volume diluted lung homogenate in isotonic buffer of pH 7.40 made by combining 0.05 M of Na2 HPO4 and 0.05 M of NaH2 PO4 with 0.05 M of NaCl), which was kept in a 37° C. water bath, to obtain a final concentration of 0.1 mM in each biological medium. Samples of 0.1 mL were taken at appropriate time intervals for 2 hours (at 0, 3, 5, 10, 20, 40, 60, 90 and 120 minutes) and mixed with 0.2 mL of acetonitrile containing 5% DMSO. Each mixture was centrifuged and the supernatant was injected in the HPLC.

A short description of data set [2]: Stability in liver homogenate. The format is in vitro ADME, rat. Conditions: rat, liver homogenate. The procedure:
as §1, §2, §3

A short description of data set [3]: Stability in lung homogenate. The data set is classed as in vitro ADME. To be noted: rat, lung homogenate. How it is done: as §1, §2, §3
Data set [4] concerns forearm of a human volunteer. Nature of the data set: Human vasoconstriction test. The data set is classed as in vivo. On the set-up: key: 0 = normal skin, 4 = very intense pallor. To be noted: 10 mM. The procedure:
Test compounds (10 mM) were dissolved in ethanol/propylene glycol (9/1) solution, and 50 μL of the mixtures were applied to circular patches, 8 mm in diameter. After ethanol evaporation, the patches were applied to the forearm of a human volunteer, and covered with a water impervious film for 3 hours. The intensity of vasoconstriction was judged 1, 8, 17 and 24 hours after the patches were removed.
The grading scale for the vasoconstriction activity was as follows: 0, normal skin; 1, slight pallor of indistinct outline; 2, pallor with at least two corners outlined; 3, even pallor with a clear outline of the application sites; 4, very intense pallor.

The nature of data set [5]: Stability in human plasma. The data set is classed as in vitro ADME. To be noted: human, plasma. The procedure: (§4) A Waters NOVA-PAK phenyl column was connected to a Spectra-Physics component system consisting of a SP 8810 precision isocratic pump, a Rheodyne 7125 injector (injection volume 20 μL), an SP 8450 UV/VIS variable wavelength detector (operated at 254 nm) and a SP 4270 integrator. […]. The retention times of compound of the invention J and its metabolities L and M were 8.64, 2.70 and 2.45 minutes, respectively. The retention times of compound of the invention I and its metabolites N and 0 were 5.84, 2.70 and 1.81 minutes, respectively. The retention time of cortienic acid was 1.00 minute.
(§5) Freshly collected human or rat plasma was used. An aliquot of 10 mM test compound in ethanol solution was added to prewarmed (37° C.) plasma to yield a final concentration of 100 μM. At appropriate time intervals, samples (0.1 mL) were removed and mixed with 0.2 mL of 5% dimethylsulfoxide/acetonitrile solution. Mixtures were centrifuged and supernatants were analyzed by HPLC. The pseudo-first order rate constant of the disappearance of compound in the biological media was determined by linear regression analysis from the plot of log peak area and peak height versus time.
(§6) Stability was evaluated by the pseudo first-order rate constant (k, hr^-1) and half-life (t1/2, hr) of the disappearance of the test compound in the media.

A short description of a further data set: Stability in rat plasma. The format is in vitro ADME. Conditions: rat, plasma. The procedure: as §4, §5, §6
Setting [6] is: aqueous phosphate buffer, pH 4.5.
Where [7] appears, read: aqueous phosphate buffer, pH 6.56.
[8] abbreviates: aqueous phosphate buffer, pH 7.4.
Where [9] appears, read: aqueous phosphate buffer, pH 8.08.

The record followed here is patent publication US5981517A, “Androstene derivatives” (priority 1997, dated 1999).

In the case of `CCCCC(=O)O[C@]1(C(=O)CO)[C@@H](C)C[C@H]2[C@@H]3CCC4=CC(=O)C=C[C@]4(C)[C@@]3(F)[C@@H](O)C[C@@]21C` [Betamethasone 17-valerate, reference compound], the Vasoconstriction activity entry was “-” in data set [1] (4 Hours, 0.01 mM); “-” in data set [1] (4 Hours, 0.05 mM); “-” in data set [1] (4 Hours, 0.1 mM); “-” in data set [1] (4 Hours, 0.5 mM); “+” in data set [1] (4 Hours, 1 mM); “+” in data set [1] (4 Hours, 5 mM). In addition, the Vasoconstriction activity entry in data set [1] (8 Hours, 0.01 mM) is recorded as “-”; in data set [1] (8 Hours, 0.05 mM) it was “-”; in data set [1] (8 Hours, 0.1 mM) it was “-”; in data set [1] (8 Hours, 0.5 mM), “+”; in data set [1] (8 Hours, 1 mM) it was “+”; in data set [1] (8 Hours, 5 mM), “+”. Further, the Vasoconstriction activity result in data set [1] (10-22 hours, 0.01 mM) was “-”; in data set [1] (10-22 hours, 0.05 mM), “-”; in data set [1] (10-22 hours, 0.1 mM), “-”; in data set [1] (10-22 hours, 0.5 mM), “+”; in data set [1] (10-22 hours, 1 mM) it was “+”; in data set [1] (10-22 hours, 5 mM), “+”. In addition, the Vasoconstriction activity result was “-” in data set [1] (24 Hours, 0.01 mM); “-” in data set [1] (24 Hours, 0.05 mM); “-” in data set [1] (24 Hours, 0.1 mM); “-” in data set [1] (24 Hours, 0.5 mM); “+” in data set [1] (24 Hours, 1 mM); “+” in data set [1] (24 Hours, 5 mM).

For `COC(=O)[C@@]1(OC(=O)C(Cl)Cl)CC[C@H]2[C@@H]3CCC4=CC(=O)C=C[C@]4(C)[C@H]3[C@@H](O)C[C@@]21C` [Compound A, Methyl 17α-dichloroacetoxy-11β-hydroxyandrosta-1,4-dien-3-one-17β-carboxylate], the half-life in the data set “physchem” (setting [6]) is above 48 h; in the data set “physchem” (setting [7]) it was 19.1 h; in the data set “physchem” (setting [8]), 3.37 h; in the data set “physchem” (setting [9]) it was 0.35 h; in the data set “physchem” (aqueous phosphate buffer, pH 9), 0.0708 h; in the data set “physchem” (buffer, pH 7.4) it was 3.37 h. Further, the half-life at 100 µM in “Stability in rat blood” was found to be 26.9 min; in data set [2], 3.7 min; in data set [3] it was 43.1 min. In addition, the Vasoconstriction activity was 2 in data set [4] (1 hour after patch removal), 4 in data set [4] (8 hours after patch removal), 4 in data set [4] (17 hours after patch removal) and 4 in data set [4] (24 hours after patch removal).

As for `CC(C)OC(=O)[C@@]1(OC(=O)C(Cl)Cl)CC[C@H]2[C@@H]3CCC4=CC(=O)C=C[C@]4(C)[C@H]3[C@@H](O)C[C@@]21C` [Compound C, Isopropyl 17α-dichloroacetoxy-11β-hydroxyandrosta-1,4-dien-3-one-17β-carboxylate], the half-life in the data set “physchem” (setting [6]) is above 48 h; in “physchem” (setting [7]), 11.3 h; in the data set “physchem” (setting [8]), 16.2 h; in the data set “physchem” (setting [9]), 2.08 h; in “physchem” (aqueous phosphate buffer, pH 9), 0.27 h; in “physchem” (buffer, pH 7.4) it was 11 h. The results for the half-life at 100 µM (in “Stability in rat blood”; in data set [2]; in data set [3]) were 107 min, 29.3 min and 170 min, respectively. Besides, the Vasoconstriction activity in data set [4] (1 hour after patch removal) turned out to be 3; in data set [4] (8 hours after patch removal) it was 4; in data set [4] (17 hours after patch removal) it was 3; in data set [4] (24 hours after patch removal), 2.

As to `C[C@]12C=CC(=O)C=C1CC[C@@H]1[C@@H]2[C@@H](O)C[C@@]2(C)[C@H]1CC[C@]2(OC(=O)C(Cl)Cl)C(=O)OCCl` [Compound D, Chloromethyl 17α-dichloroacetoxy-11β-hydroxyandrosta-1,4-dien-3-one-17β-carboxylate], the half-life in “physchem” (setting [6]) was determined as 14 h; in “physchem” (setting [7]) it was 0.822 h; in the data set “physchem” (setting [8]), 0.232 h; in “physchem” (setting [9]), 0.0483 h; in the data set “physchem” (aqueous phosphate buffer, pH 9), 0.0178 h; in “physchem” (buffer, pH 7.4), 0.232 h. The half-life at 100 µM was 11.6 min in “Stability in rat blood”, 7.6 min in data set [2] and 52.4 min in data set [3]. In addition, the Vasoconstriction activity in data set [4] (1 hour after patch removal) turned out to be 3; in data set [4] (8 hours after patch removal), 4; in data set [4] (17 hours after patch removal), 3; in data set [4] (24 hours after patch removal), 2.

On to `COC(=O)[C@@]1(OC(=O)C(Cl)Cl)[C@H](C)C[C@H]2[C@@H]3CCC4=CC(=O)C=C[C@]4(C)[C@@]3(F)[C@@H](O)C[C@@]21C` [Compound I, methyl 17α-dichloroacetoxy-9α-fluoro-11β-hydroxy-16α-methylandrosta-1,4-dien-3-one-17β-carboxylate], for which the half-life at 100 µM in data set [5] was 656 min; in “Stability in rat plasma”, 593 min. Further, the Vasoconstriction activity result in data set [1] (4 Hours, 0.01 mM) is listed as “-”; in data set [1] (4 Hours, 0.05 mM) it was “-”; in data set [1] (4 Hours, 0.1 mM), “+”; in data set [1] (4 Hours, 0.5 mM), “+”; in data set [1] (4 Hours, 1 mM), “+”; in data set [1] (4 Hours, 5 mM), “+”. Also, the Vasoconstriction activity result in data set [1] (8 Hours, 0.01 mM) is “-”; in data set [1] (8 Hours, 0.05 mM), “+”; in data set [1] (8 Hours, 0.1 mM) it was “+”; in data set [1] (8 Hours, 0.5 mM), “+”; in data set [1] (8 Hours, 1 mM) it was “+”; in data set [1] (8 Hours, 5 mM) it was “+”. Further, the Vasoconstriction activity entry is given as “-” in data set [1] (10-22 hours, 0.01 mM); “-” in data set [1] (10-22 hours, 0.05 mM); “+” in data set [1] (10-22 hours, 0.1 mM); “+” in data set [1] (10-22 hours, 0.5 mM); “+” in data set [1] (10-22 hours, 1 mM); “+” in data set [1] (10-22 hours, 5 mM). Further, the Vasoconstriction activity entry in data set [1] (24 Hours, 0.01 mM) is given as “-”; in data set [1] (24 Hours, 0.05 mM), “-”; in data set [1] (24 Hours, 0.1 mM), “+”; in data set [1] (24 Hours, 0.5 mM), “+”; in data set [1] (24 Hours, 1 mM), “+”; in data set [1] (24 Hours, 5 mM), “+”.
